From US20230181905A1, “Systems, Devices, and Methods for Enhancing the Neuroprotective Effects of Non-Invasive Gamma Stimulation with Pharmacological Agents” (Massachusetts Institute of Technology, priority 2021, published 2023) come the findings set out here.

One assay concerns C1q. The experiment in a line: C1q signal intensity immunohistochemistry. It is filed as in vivo, mouse. The conditions noted are these: 5×FAD mice. From the text:
Elevated expression of C1q is observed in both human AD and mouse models of AD, and further such an elevated expression is closely associated with the elimination of synapses in microglia. In addition, MHC2 expression is increased in the AD brain. Therefore, to test whether these treatments, that improved synaptic density, had any effect on these neuroinflammatory markers, C1q (Abcam, #ab182451) and MHC2 (EMD Millipore, #MABF33) levels (FIGS. 5A-5D) were examined.
C1q and MHC2 signal intensity: Using an LSM 710 with a 20× or 40× objectives, z stacks of the entire slice thickness […] (40 images from each field) were acquired. The signal intensity was measured.
C1q and MHC2 signal intensity: Using an LSM 710 with a 20× or 40× objectives, z stacks of the entire slice thickness […] (40 images from each field) were acquired. The signal intensity was measured in Imaris.

The test system of the next assay is aggrecan. The experiment in a line: Aggrecan immunohistochemistry around PV interneurons. It is filed as in vivo, mouse. The conditions noted are these: 5×FAD mice, visual cortex; Plx3397 50 days. The source says: These observations led to examination of the effect of Plx3397 administration on neuronal integrity. […] Indeed, it was observed that Plx3397 administration increased WFA+(Wisteria floribunda agglutinin, a PNN marker) PNN signals (au, 289400000±9384029 versus 213000000±16633300 in controls) (FIG. 22A, 22F), while aggrecan (a component in PNN) signals were […] specifically around PV interneurons in Plx3397 administered 5×FAD mice (12.34±0.4791 versus 7.837±0.3549 in controls) (FIG. 22A, 22G).

For assay [1], the system named is LFP oscillations in the visual cortex. The experiment in a line: In vivo electrophysiology: LFP power and 40 Hz entrainment in visual cortex. The arrangement: species or system mouse. As to the method: Next, it was aimed to understand how these treatments impacted the LFP oscillations and neuronal action potentials. First, in vivo awake animal electrophysiology was performed using high-density linear probes and verified whether 5×FAD mice with reduced microglia by Plx3397 treatment can entrain 40 Hz sensory stimulation. […] At the group level gamma stimulation increased gamma but not theta power as expected based on previous findings (2 W ANOVA, groups x frequency, F (1,6)=32.03, P=0.0013) (FIGS. 15A, 15B).
Mice were anaesthetized with isoflurane, restrained in a stereotactic apparatus and craniotomies were made exposing the visual cortex (AP: −3.2 & ML: +2.5). […] The reference electrode was targeted to the white matter tract above the hippocampus. Mice were allowed to recover for a period of 4 days.
Following a 2-3-day habitation period for the recording, recordings commenced with the animal allowed to move freely in their home cages. Data were acquired using Neuralynx SX system (Neuralynx, Bozeman, Mont., USA) and signals were sampled at 32,000 Hz. The position of animals was tracked using red light-emitting diodes affixed to the probes. At the conclusion of the experiment, mice underwent terminal anesthesia and electrode positions were marked by electrolytic lesioning of brain tissue with […] current for 10 s through each electrode individually, to confirm their anatomical location.
LFPs were first filtered to the Nyquist frequency of the target sampling rate then downsampled to 1000 Hz. Power spectral analyses were performed using the pwelch function in MATLAB using a 500 ms time window with a 50% overlap.
Mice were anaesthetized with isoflurane, restrained in a stereotactic apparatus and craniotomies were made exposing the visual cortex. Specifically, a 2×2 mm piece of skull was removed using a dental drill, which was above the V1 (stereotaxic 826 coordinates relative to bregma; AP −3.2; ML+2.5); during this entire procedure, the dura was kept intact and moist with saline. Following the skull removal from above both the right V1, two additional drilling holes above the frontal cortex were made and two skull screws were placed. […] The probe was grounded to skull screw above the cerebellum. Petroleum jelly (Vaseline, 100% white petrolatum) was gently applied on the cranial window without touching the probe/electrodes, which protected both the brain and probe/electrode. Next, the probe was further lowered and/or adjusted to reach the target depth. Finally, the probe was cemented on the skull with dental cements, first with a metabond (Parkell, C&B Metabond Quick Adhesive Cement System, #836 SKU:S380) followed by a dental cement from Steolting (#51459). Mice were allowed to recover for a period of 4 days.
Data analyses: LFPs were first filtered to the Nyquist frequency of the target sampling rate then down-sampled to 1000 Hz. Power spectral analyses were performed using the pwelch function in MATLAB using a 500 ms time window with a 50% overlap.
Time-frequency representation of LFP: The LFP data were down sampled to 1,000 Hz. For the calculation of the wavelet power spectrum, the continuous wavelet transforms (CWT) was applied to the LFP using complex Morlet wavelets returning amplitudes at 226 intervals between 1-100 Hz. CWT based wavelet power spectrum was shown in FIG. 21A, FIG. 26C, and FIG. 27C. For visualizing 40 Hz entrainment at finer frequency resolution, multitaper spectral analysis using Chronux toolbox was used.

Structures are written as SMILES.

Take `FC(F)(F)c1ccc(CNc2ccc(Cc3c[nH]c4ncc(Cl)cc34)cn2)cn1` [Plx3397, Pexidartinib]: the C1q levels result with C1q (hippocampus, chronic Plx3397 vs control) is recorded as “reduced”. The C1q in the assay with C1q (visual cortex, Plx3397 50 days) is on record as 22040955±1586416 au. For the same compound, in the assay with aggrecan, the “aggrecan signals around PV interneurons” value is given as 12.34±0.4791. For the same compound, the “entrainment of 40 Hz sensory stimulation” value in assay [1] (5×FAD mice with microglia reduced by Plx3397, awake recording) is “can indeed entrain 40 Hz”. Moreover, in assay [1] (5×FAD mice, Plx3397 diet 50 days vs control), the LFP spectral power entry was “no significant difference”. Besides, the “time-resolved LFP gamma and theta power” value in assay [1] (5×FAD mice, chronic Plx3397 administration) was “elevated power of gamma and theta that occur incongruently”. Also, the gamma response latency entry in assay [1] (5×FAD mice, untreated vs Plx3397 treated) is “comparable”. The “power of 40 Hz entrainment compared to control 5×FAD mice” value in assay [1] (Plx3397 administered 5×FAD mice, acute 40 Hz stimulation) is on record as “higher”. The aberrant theta-bursts entry in assay [1] (Plx3397 treated 5×FAD mice during acute 40 Hz visual stimulation) was “reduced”.
